Experimental data from ChEMBL document CHEMBL5291721, “A preclinical secondary pharmacology resource illuminates target-adverse drug reaction associations of marketed drugs” (Nat Commun, 2023).

Tests used:
[1] = target: Glutamate receptor ionotropic, NMDA 1 (Rattus norvegicus, UniProt P35439)
[2] = target: Beta-1 adrenergic receptor (Homo sapiens, UniProt P08588); assay type: functional
[3] = target: Vasopressin V1a receptor (Homo sapiens, UniProt P37288)
[4] = target: T1, Alpha-1A adrenergic receptor (Homo sapiens, UniProt P35348); assay type: functional, cell-based
T1 sequence (P35348 whole entry): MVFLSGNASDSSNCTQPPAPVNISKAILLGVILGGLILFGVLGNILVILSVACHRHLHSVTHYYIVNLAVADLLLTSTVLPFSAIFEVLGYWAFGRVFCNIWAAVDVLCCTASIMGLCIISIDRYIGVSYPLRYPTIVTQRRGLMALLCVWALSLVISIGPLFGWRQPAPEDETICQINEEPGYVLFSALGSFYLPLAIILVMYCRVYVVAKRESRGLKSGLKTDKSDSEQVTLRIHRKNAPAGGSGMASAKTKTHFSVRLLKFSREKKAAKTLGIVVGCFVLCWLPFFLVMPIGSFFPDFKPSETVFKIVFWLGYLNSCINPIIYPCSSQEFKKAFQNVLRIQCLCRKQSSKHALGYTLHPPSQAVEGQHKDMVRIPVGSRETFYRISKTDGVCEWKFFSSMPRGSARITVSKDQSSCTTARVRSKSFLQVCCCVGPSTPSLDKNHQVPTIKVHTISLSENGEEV

[5] = target: T2, Adenosine receptor A1 (Homo sapiens, UniProt P30542)
T2 sequence (P30542 whole entry): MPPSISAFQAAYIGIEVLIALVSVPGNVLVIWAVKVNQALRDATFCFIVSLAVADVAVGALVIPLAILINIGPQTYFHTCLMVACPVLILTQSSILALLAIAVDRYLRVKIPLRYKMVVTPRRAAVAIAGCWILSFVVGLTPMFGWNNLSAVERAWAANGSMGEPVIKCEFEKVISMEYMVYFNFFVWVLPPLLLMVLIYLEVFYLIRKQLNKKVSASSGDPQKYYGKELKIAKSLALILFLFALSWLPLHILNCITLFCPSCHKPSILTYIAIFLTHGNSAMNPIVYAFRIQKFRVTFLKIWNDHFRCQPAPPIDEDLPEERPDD

[6] = target: Gamma-aminobutyric acid receptor subunit alpha-1 (Rattus norvegicus, UniProt P62813); assay type: functional
[7] = target: T3, Adenosine receptor A3 (Homo sapiens, UniProt P0DMS8)
T3 sequence (P0DMS8 whole entry): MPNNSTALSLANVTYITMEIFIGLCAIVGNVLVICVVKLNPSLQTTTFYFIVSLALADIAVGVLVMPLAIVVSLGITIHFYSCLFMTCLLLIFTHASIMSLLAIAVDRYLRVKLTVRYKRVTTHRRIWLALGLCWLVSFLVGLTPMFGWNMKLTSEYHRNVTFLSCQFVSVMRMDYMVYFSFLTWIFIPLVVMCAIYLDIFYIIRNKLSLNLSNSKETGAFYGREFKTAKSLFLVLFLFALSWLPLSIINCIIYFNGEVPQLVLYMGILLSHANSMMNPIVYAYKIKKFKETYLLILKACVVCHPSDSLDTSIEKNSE

[8] = target: T4, Cholecystokinin receptor type A (Homo sapiens, UniProt P32238)
T4 sequence (P32238 whole entry): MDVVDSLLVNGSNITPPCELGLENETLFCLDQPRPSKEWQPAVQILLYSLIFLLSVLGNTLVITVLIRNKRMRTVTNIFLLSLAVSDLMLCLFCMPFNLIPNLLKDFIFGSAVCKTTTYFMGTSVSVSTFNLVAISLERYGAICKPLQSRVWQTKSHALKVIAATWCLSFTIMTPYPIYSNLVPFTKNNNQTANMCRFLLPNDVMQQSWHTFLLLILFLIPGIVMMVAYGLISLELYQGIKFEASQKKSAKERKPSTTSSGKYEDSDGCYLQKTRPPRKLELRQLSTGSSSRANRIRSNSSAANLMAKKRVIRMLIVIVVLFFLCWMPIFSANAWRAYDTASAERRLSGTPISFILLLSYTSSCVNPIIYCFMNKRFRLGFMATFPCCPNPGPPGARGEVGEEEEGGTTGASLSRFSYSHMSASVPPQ

[9] = target: T1, Alpha-1A adrenergic receptor
[10] = target: Melanocortin receptor 4 (Homo sapiens, UniProt P32245)
[11] = target: Mu-type opioid receptor (Homo sapiens, UniProt P35372)
Note: assay procedure not described here.

Vasopressin V1a receptor, sequence (P37288 whole entry): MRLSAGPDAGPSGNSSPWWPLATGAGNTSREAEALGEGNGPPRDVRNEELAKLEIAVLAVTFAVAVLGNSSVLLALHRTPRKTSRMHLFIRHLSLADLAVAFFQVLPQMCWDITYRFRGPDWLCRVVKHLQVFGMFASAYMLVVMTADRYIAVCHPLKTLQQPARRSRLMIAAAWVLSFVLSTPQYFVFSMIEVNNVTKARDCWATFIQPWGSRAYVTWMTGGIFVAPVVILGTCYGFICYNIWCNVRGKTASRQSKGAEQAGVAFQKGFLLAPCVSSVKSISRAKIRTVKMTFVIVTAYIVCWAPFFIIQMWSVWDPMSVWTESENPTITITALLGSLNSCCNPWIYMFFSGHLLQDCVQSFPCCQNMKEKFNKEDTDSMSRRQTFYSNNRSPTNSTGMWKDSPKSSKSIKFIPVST
Mu-type opioid receptor, sequence (P35372 whole entry): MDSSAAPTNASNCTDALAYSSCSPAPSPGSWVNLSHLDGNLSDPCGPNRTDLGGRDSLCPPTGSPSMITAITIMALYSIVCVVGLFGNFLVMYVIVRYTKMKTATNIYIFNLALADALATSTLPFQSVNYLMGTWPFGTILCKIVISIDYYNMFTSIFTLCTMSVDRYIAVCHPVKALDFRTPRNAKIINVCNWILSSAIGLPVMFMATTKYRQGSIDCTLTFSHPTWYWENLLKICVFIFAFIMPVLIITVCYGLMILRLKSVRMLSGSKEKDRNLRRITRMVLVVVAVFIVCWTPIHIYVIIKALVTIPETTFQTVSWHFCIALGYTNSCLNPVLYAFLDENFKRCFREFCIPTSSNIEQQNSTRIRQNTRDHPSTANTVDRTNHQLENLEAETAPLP
Beta-1 adrenergic receptor, sequence (P08588 whole entry): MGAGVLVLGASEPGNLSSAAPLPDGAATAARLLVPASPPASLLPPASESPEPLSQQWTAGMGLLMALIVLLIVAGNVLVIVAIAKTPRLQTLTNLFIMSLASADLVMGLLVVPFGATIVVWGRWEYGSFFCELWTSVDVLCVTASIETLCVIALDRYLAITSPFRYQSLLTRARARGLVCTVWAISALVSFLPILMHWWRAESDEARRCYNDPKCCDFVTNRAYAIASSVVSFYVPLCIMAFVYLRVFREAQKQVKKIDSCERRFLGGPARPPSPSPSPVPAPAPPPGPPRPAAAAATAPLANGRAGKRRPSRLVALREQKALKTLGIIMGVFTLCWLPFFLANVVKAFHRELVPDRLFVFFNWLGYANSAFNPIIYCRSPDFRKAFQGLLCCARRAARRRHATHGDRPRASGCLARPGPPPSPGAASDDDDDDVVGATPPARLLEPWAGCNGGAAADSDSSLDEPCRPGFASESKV
Gamma-aminobutyric acid receptor subunit alpha-1, sequence (P62813 whole entry): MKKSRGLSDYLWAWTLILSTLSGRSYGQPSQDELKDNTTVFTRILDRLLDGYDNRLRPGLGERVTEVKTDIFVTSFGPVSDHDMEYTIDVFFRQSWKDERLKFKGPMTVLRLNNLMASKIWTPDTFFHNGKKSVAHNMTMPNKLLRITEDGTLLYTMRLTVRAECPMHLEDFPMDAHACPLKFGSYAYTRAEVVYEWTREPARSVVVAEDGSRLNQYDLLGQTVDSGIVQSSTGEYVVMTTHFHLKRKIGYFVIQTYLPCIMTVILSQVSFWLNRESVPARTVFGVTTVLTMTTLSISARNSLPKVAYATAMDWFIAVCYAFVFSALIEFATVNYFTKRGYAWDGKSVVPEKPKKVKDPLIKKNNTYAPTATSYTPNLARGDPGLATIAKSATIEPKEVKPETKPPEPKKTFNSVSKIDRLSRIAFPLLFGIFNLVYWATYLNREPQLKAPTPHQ
Melanocortin receptor 4, sequence (P32245 whole entry): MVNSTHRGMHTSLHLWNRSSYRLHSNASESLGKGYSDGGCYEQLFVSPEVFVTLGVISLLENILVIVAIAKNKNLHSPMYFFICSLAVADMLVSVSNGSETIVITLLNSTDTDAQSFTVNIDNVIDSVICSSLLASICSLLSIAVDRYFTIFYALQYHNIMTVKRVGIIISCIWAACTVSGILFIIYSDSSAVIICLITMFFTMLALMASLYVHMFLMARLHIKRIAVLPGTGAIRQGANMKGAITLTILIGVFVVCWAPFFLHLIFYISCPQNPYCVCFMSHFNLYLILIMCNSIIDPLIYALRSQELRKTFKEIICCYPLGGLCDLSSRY

Row | Structure (SMILES) | AC50 [1] [µM] | AC50 [2] [µM] | AC50 [3] [µM] | AC50 [4] [µM] | AC50 [5] [µM] | AC50 [6] [µM] | AC50 [7] [µM] | AC50 [8] [µM] | AC50 [9] [µM] | AC50 [10] [µM] | AC50 [11] [µM]
1 | COc1ccc(-c2ccc3cc(C(=O)O)ccc3c2)cc1C12CC3CC(CC(C3)C1)C2 | > 30 | > 30 | > 30 | > 30 | > 30 | > 30 | > 30 | > 30 |  |  | 
2 | CNS(=O)(=O)Cc1ccc2[nH]cc(CCN(C)C)c2c1 | > 30 | > 10 | > 10 | > 30 | > 30 | > 30 | > 30 | > 30 | > 30 | > 30 | > 10
3 | COc1ccccc1N1CCN(CCCNc2cc(=O)n(C)c(=O)n2C)CC1 | > 30 |  | > 30 | 0.57 | > 30 | > 30 | > 30 | > 30 | 0.0043 |  | 
4 | CCOC(=O)[C@H](CCc1ccccc1)N[C@@H](C)C(=O)N1C(=O)N(C)C[C@H]1C(=O)O | > 30 | > 30 | > 30 | > 30 | > 30 | > 30 | > 30 | > 30 |  |  | 
5 | CC(C)(C)C(=O)Oc1ccc(S(=O)(=O)Nc2ccccc2C(=O)NCC(=O)O)cc1 | > 30 | > 30 | > 30 |  | > 30 | > 30 | > 30 | > 30 |  |  | 
6 | O=C(O)CCCCCCNC1c2ccccc2CCc2ccccc21 [AMINEPTINE] | > 30 | > 30 | > 30 | > 30 | > 30 | > 30 | > 30 | > 30 |  |  | 
7 | NCC(=O)CCC(=O)O [AMINOLEVULINIC ACID] | > 30 | > 30 | > 30 | > 30 | > 30 | > 30 | > 30 | > 30 |  |  | > 30
8 | CCOC(=O)OC(C)OC1=C(C(=O)Nc2ccccn2)N(C)S(=O)(=O)c2ccccc21 (stereo unspecified) [AMPIROXICAM] | > 30 | > 30 |  | > 30 | > 30 | > 30 | > 30 | > 30 |  |  | 
9 | COC(=O)C1=C(C)NC(C)=C(C(=O)OC2CCCN(Cc3ccccc3)C2)C1c1cccc([N+](=O)[O-])c1 (stereo unspecified) [BENIDIPINE] | > 30 | > 30 | > 30 |  | > 30 | > 30 | 3.5 | > 30 | 3 |  | 
10 | CO/N=C(\C(=O)N[C@@H]1C(=O)N2C(C(=O)O)=C(CSc3nnnn3C)CS[C@H]12)c1csc(N)n1 [CEFMENOXIME] |  | > 30 | > 30 | > 30 | > 30 |  | > 30 | > 30 |  |  | 
11 | CCN1CCN(C(=O)N[C@@H](C(=O)N[C@@H]2C(=O)N3C(C(=O)O)=C(CSc4nnnn4C)CS[C@H]23)c2ccc(O)cc2)C(=O)C1=O [CEFOPERAZONE] | > 30 | > 30 | > 30 |  | > 30 | > 30 | > 30 | > 30 |  |  | 
12 | CC(=O)OCC(=O)[C@@]12N=C(C)O[C@@H]1C[C@H]1[C@@H]3CCC4=CC(=O)C=C[C@]4(C)[C@H]3[C@@H](O)C[C@@]12C [DEFLAZACORT] | > 30 | > 30 | > 30 | > 30 | > 30 | > 30 | > 30 | > 30 |  |  | 
13 | CCCCCCOc1ccccc1C(N)=O [EXALAMIDE] | > 30 | > 30 | > 30 | > 30 | > 30 | > 30 | > 30 | > 30 |  |  | 
14 | COc1ccc(CCN(C)CCCC(C#N)(c2cc(OC)c(OC)c(OC)c2)C(C)C)cc1OC (stereo unspecified) [GALLOPAMIL] | > 30 | > 30 | > 30 | > 30 | > 30 | > 30 | > 30 | > 30 |  |  | 
15 | CC(C)C(=O)c1c(C(C)C)nn2ccccc12 [IBUDILAST] | > 30 | > 30 | > 30 | > 30 | 20 | 5.7 | > 30 | > 30 |  |  | 
16 | Nc1nc(N)nc(-c2cc(Cl)ccc2Cl)n1 [IRSOGLADINE] |  | > 30 |  | > 30 | > 30 |  | > 30 | > 30 |  |  | 
17 | CNC(C)CCC=C(C)C (stereo unspecified) [ISOMETHEPTENE] |  | > 30 | > 30 |  | > 30 |  | > 30 | > 30 |  |  | 
18 | CCOC(=O)[N-]c1cn(N2CCOCC2)n[o+]1 [MOLSIDOMINE] | > 30 | > 30 | > 30 | > 30 | > 30 | > 30 | > 30 | > 30 |  |  | 
19 | OC(CNCC(O)C1CCc2cc(F)ccc2O1)C1CCc2cc(F)ccc2O1 (stereo unspecified) [NEBIVOLOL] | > 30 |  | > 30 | 3.1 | > 30 | > 30 | 19 | > 30 |  |  | 
20 | CCCc1nc(C(C)(C)O)c(C(=O)OCc2oc(=O)oc2C)n1Cc1ccc(-c2ccccc2-c2nnn[nH]2)cc1 [OLMESARTAN MEDOXOMIL] | > 10 | > 10 | > 30 | > 30 | > 50 | > 10 | > 10 | > 50 | > 10 | > 50 | > 10
21 | O=C(O)/C=C/c1ccc(Cn2ccnc2)cc1 [OZAGREL] | > 30 | > 30 | > 30 |  | > 30 | > 30 | > 30 | > 30 |  |  | 
22 | CC(CC(c1ccccc1)c1ccccc1)NC(C)(C)C (stereo unspecified) [TERODILINE] | > 30 | > 30 | > 30 | 12 | > 30 | > 30 | > 30 | > 30 |  |  | 
23 | CC(=O)O[C@H]1C[C@@H]2CC[C@@H]3[C@H](CC[C@@]4(C)[C@H]3C[C@H]([N+]3(C)CCCCC3)[C@@H]4OC(C)=O)[C@@]2(C)C[C@@H]1N1CCCCC1 [VECURONIUM] | > 30 | > 30 |  | > 30 | > 30 | > 30 | > 30 | > 30 |  |  | 
24 | C=CCN1CCCC1CNC(=O)c1cc(S(N)(=O)=O)cc(OC)c1OC (stereo unspecified) [VERALIPRIDE] | > 30 | > 30 | > 30 | > 30 | > 30 | > 30 | > 30 | > 30 |  |  | 
25 | O=C(NCCNCC(O)COc1ccc(O)cc1)N1CCOCC1 (stereo unspecified) [XAMOTEROL] | > 30 |  | > 30 |  | > 30 | > 30 | > 30 | > 30 |  |  | 
